Source: PubChem BioAssay (NCI)
“And” between values parts separate entries of the source, which are not always exact repeats. Equal entries are not always repeated.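 In this assay, cells in 96-well plates receive the compound at five concentrations for 48 hours. Endpoints are linearly interpolated between the surrounding concentrations. GI50 = concentration required for 50% inhibition of growth. At the TGI there is no net growth.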

Assays:
Assay in all cases: NCI-60 cell line screen, 48 h
HCT-116 colon = tested on: HCT-116 colon
SK-MEL-2 melanoma = tested on: SK-MEL-2 melanoma
SK-MEL-28 melanoma = tested on: SK-MEL-28 melanoma
HOP-92 NSCLC = tested on: HOP-92 NSCLC
OVCAR-3 ovarian = tested on: OVCAR-3 ovarian
ACHN renal = tested on: ACHN renal
U251 CNS = tested on: U251 CNS
M14 melanoma = tested on: M14 melanoma
HOP-62 NSCLC = tested on: HOP-62 NSCLC
HCC-2998 colon = tested on: HCC-2998 colon

SMILES | GI50 (HCT-116 colon) [µM] | TGI (HCT-116 colon) | GI50 (SK-MEL-2 melanoma) [µM] | TGI (SK-MEL-2 melanoma) [µM] | GI50 (SK-MEL-28 melanoma) [µM] | TGI (SK-MEL-28 melanoma) [µM] | GI50 (HOP-92 NSCLC) [µM] | TGI (HOP-92 NSCLC) [µM] | GI50 (OVCAR-3 ovarian) [µM] | TGI (OVCAR-3 ovarian) [µM] | GI50 (ACHN renal) [µM] | TGI (ACHN renal) [µM] | GI50 (U251 CNS) | TGI (U251 CNS) | GI50 (M14 melanoma) [µM] | TGI (M14 melanoma) [µM] | TGI (HOP-62 NSCLC) [µM] | TGI (HCC-2998 colon) [µM] | GI50 (HOP-62 NSCLC) [µM] | GI50 (HCC-2998 colon) [µM]
CN(C)c1ccc2c(c1)CN1C(=O)c3ccccc3C1=N2 | > 100 | > 100 µM | > 100 | > 100 | > 100 | > 100 | > 100 | > 100 | > 100 | > 100 | > 100 | > 100 | > 100 µM | > 100 µM | > 100 | > 100 |  |  |  | 
CCNC(C)(C)C(SS)c1ccc(Br)cc1 (stereo not drawn) |  | > 100 µM |  | > 100 |  | > 100 |  | > 100 |  | > 100 |  | > 100 |  | > 100 µM |  | > 100 | > 100 |  |  | 
O=C(c1ccccc1)C(c1ccccc1)C1(O)C(=O)Nc2ccccc21 (stereo not drawn) |  | > 100 µM |  | > 100 |  | > 100 |  | > 100 |  | > 100 |  | > 100 |  |  |  | > 100 | > 100 | > 100 |  | 
O=C(C/C(=N\NC(=O)C[n+]1ccccc1)C(=O)Nc1nc2ccc([N+](=O)[O-])cc2s1)CC(c1ccccc1)c1c(O)c2ccccc2oc1=O (stereo not drawn) |  | > 100 µM |  | > 100 |  | > 100 |  | > 100 |  | > 100 |  | > 100 |  |  |  | > 100 | > 100 | > 100 |  | 
CC(C)(C)N/N=C(\Cc1occc(=O)c1O)C(=O)Nc1ccc([N+](=O)[O-])cc1[N+](=O)[O-] |  | > 100 µM |  | > 100 |  | > 100 |  | > 100 |  |  |  | > 100 |  | > 100 µM |  | > 100 | > 100 |  |  | 
CC(=O)OCCOCNC(=S)N/N=C/c1ccc2ccccc2n1 |  | > 100 µM |  | > 100 |  | > 100 |  |  |  | > 100 |  | > 100 |  | > 100 µM |  | > 100 | > 100 | > 100 |  | 
C=C[C@@]1(C)CCC2(O)C(CCC3C2(C)CCC[C@@]3(C)COC(=O)CC(=O)OC)C1 (stereo partly drawn) |  | 32.3 µM |  |  |  | 30.9 |  |  |  | 32.5 |  | > 100 |  | 32.2 µM |  | 32.7 | 34 | > 100 |  | 
COc1cc2c(c(OC)c1OC)C(=O)CC(c1cccc(NC(=O)c3ccc(Br)cc3)c1)O2 (stereo not drawn) | 2.63 | > 100 µM | 2.16 | 5.38 | 2.98 | > 100 |  |  |  |  | 3.02 | > 100 | 3.07 µM | > 100 µM | 2.08 | 7.49 | > 100 | > 100 | 2.89 | 7.49
CCOC(=O)c1cc(/C=C/C(C)=C/C(=O)OC)oc1-c1ccccc1 |  | > 100 µM |  | > 100 |  |  |  |  |  | > 100 |  | > 100 |  | > 100 µM |  | > 100 |  | > 100 |  | 
[N-]=[N+]=Nc1ccc(CCN2CCN(c3cccc(C(F)(F)F)c3)CC2)cc1I |  | > 100 µM |  | > 100 |  | > 100 |  |  |  | > 100 |  | > 100 |  | > 100 µM |  | > 100 |  |  |  | 
NC(=O)c1cc(-c2ccncc2)cc(-c2ccccc2)c1N | > 24 | > 25 µM | > 5.2 | > 17 | > 25 | > 25 |  |  | 20.5 | > 25 | 7.4 | > 25 | > 25 µM | > 25 µM | > 25 | > 25 | > 25 | > 25 | > 25 | > 25
NC1=NC(c2ccc(Cl)cc2)N(c2ccc(S(=O)(=O)Nc3ncccn3)cc2)C(N)=N1 (stereo not drawn) |  | > 100 µM |  | > 100 |  | > 100 |  | > 100 |  | > 100 |  | > 100 |  | > 100 µM |  | > 100 | > 100 |  |  | 
CCN(CC)C(=O)CC1=C(C)/C(=C/c2[nH]c(-c3ccc[nH]3)cc2OC)N=C1C | 0.286 | 10.3 µM | 0.275 | 0.799 |  |  | 0.235 | 0.977 | 0.509 | 14.1 | 0.374 | 1.97 | 0.449 µM | 15.5 µM | 0.227 | 0.607 | 11.6 |  | 0.504 | 
CC1(C)C(c2ccccc2)=NN(O)c2ccccc21 |  | > 100 µM |  | > 100 |  | > 100 |  |  |  | > 100 |  |  |  | > 100 µM |  | > 100 | > 100 | > 100 |  | 
Cc1ccc(C2CC(c3ccc([N+](=O)[O-])cc3)=Nc3ccccc3S2)cc1 (stereo not drawn) |  |  |  | 95 |  | 94.3 |  |  |  | 99.7 |  | > 100 |  |  |  | > 100 | > 100 | 40.3 |  | 
O=C(/C=C/C12c3ccccc3C(c3ccccc31)C1C(=O)N(c3ccccc3)C(=O)C12)c1ccc(Cl)cc1 (stereo not drawn) | 0.537 | 2.16 µM | 2.48 | 5.86 | 1.98 | 5.11 | 1.33 | 3.26 |  |  | 1.39 | 2.81 | 1.84 µM | 4.82 µM | 2.14 | 6.78 | 6.86 | 3.66 | 2.45 | 1.7
CC[C@@]1(OC(=O)CN)C(=O)OCc2c1cc1n(c2=O)Cc2cc3cc4c(cc3nc2-1)OCO4 |  |  | 0.105 | 0.438 | 0.209 | 10.8 | < 0.01 | 0.404 | < 0.0239 | 0.412 | < 0.01 | < 0.01 | < 0.01 µM | 0.202 µM | < 0.01 | 0.0439 | < 0.0495 | 1.38 | < 0.01 | 0.0171
Cc1cc(N2CCN(C)CC2)nc(NCc2cc(Nc3ccnc4cc(Cl)ccc34)ccc2F)n1 | 1.5 | 3.3 µM | 1.95 | 3.8 | 1.67 | 3.28 |  |  | 2 | 4.15 | 1.88 | 3.45 | 1.87 µM | 3.73 µM | 2 | 3.86 | 3.83 | 4.85 | 1.63 | 1.79
COc1cc([N+](=O)[O-])c(S(=O)(=O)O)cc1NS(=O)(=O)c1ccc(C)cc1 |  | > 100 µM |  | > 100 |  | > 100 |  |  |  | > 100 |  | > 100 |  | > 100 µM |  | > 100 | > 100 |  |  | 
O=C(O)C1CCc2nnc(-c3ccccc3)n21 (stereo not drawn) |  | > 100 µM |  | > 100 |  | > 100 |  |  |  | > 100 |  | > 100 |  | > 100 µM |  | > 100 | > 100 | > 100 |  | 
Cc1onc(-c2c(F)cccc2Cl)c1-c1ncc(-c2ccc(Cl)cc2)o1 | 2.76 | > 100 µM |  |  | 6.26 | > 100 |  |  | 8.84 | > 100 | 5.15 | > 100 |  |  | 5.67 | > 100 | > 100 | > 100 | 8.45 | 5.95
CNC(=S)N/N=C1\CC(c2ccccc2)Oc2ccccc21 (stereo not drawn) |  | > 100 µM |  | > 100 |  | > 100 |  | > 100 |  | > 100 |  | > 100 |  | > 100 µM |  | > 100 |  | > 100 |  | 
C[C@@H](C1CCC2C3C(=CC(=O)[C@@]21C)[C@H](C)[C@]1(CCC(=O)O1)C1OC31)[C@H]1C[C@]2(C)O[C@@](C)(O1)OC2(C)C (stereo partly drawn) |  | > 100 µM |  |  |  | > 100 |  | > 100 |  |  |  | > 100 |  | > 100 µM |  | > 100 |  |  |  | 
[C-]#[O+].[Cl][Sn]([Cl])[Cl].[Cl][Sn]([Cl])[Cl].[Pt].c1ccc([PH+](c2ccccc2)c2ccccc2)cc1.c1ccc([PH+](c2ccccc2)c2ccccc2)cc1 | 43.2 | > 100 µM | 34 | > 100 | 69.5 | > 100 | 17.1 | 46.8 | 62.1 | > 100 | 26.4 | > 100 | 15.3 µM | 42.5 µM | 30.7 | > 100 |  | > 100 |  | 60.7
CC(N=C(N)N)C(=O)O (stereo not drawn) |  | > 100 µM |  | > 100 |  | > 100 |  |  |  | > 100 |  | > 100 |  | > 100 µM |  | > 100 | > 100 | > 100 |  | 
COc1cc(=O)oc(/C=C/C=O)c1C |  | 17.4 µM |  |  |  | 26.6 |  | 53.4 |  | 33.4 |  | 39.6 |  | 28.6 µM |  | 33.8 | 34.9 | 32.2 |  | 
C/C=C(\C)c1cc(=O)c2c(C)cc3c(c2o1)C(=O)c1c(O)c(C2CC(C)(N(C)C)C(O)C(C)O2)cc(C2CC(N(C)C)C(O)C(C)O2)c1C3=O (stereo not drawn) |  | 1.3 µM and 10.2 µM | 3.67 | 12.2 |  |  |  |  |  |  |  | 0.504 | 0.206 µM and 1.74 µM | 1.35 µM and 5.71 µM |  | 0.312 |  |  |  | 
CC1=CCC2(C#N)CCC1C2O (stereo not drawn) |  | > 100 µM |  | > 100 |  | > 100 |  |  |  | > 100 |  | > 100 |  | > 100 µM |  | > 100 | > 100 | > 100 |  | 
